Results on one molecule are retold here after the supplement of paper PMC11061612.

Structures are written as SMILES.

Assay [1] deals with BICR22 (Oral Cavity Carcinoma). The assay can be described thus: Bliss excess, mean over the matrix (fraction); higher = more synergy. Summed up:
(§1)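 Cell lines grown in DMEM/F12 or RPMI with 10% FBS were plated in 1536-well plates and held 24 hours at 37°C, 5% CO2 before 72 hours of exposure to two-drug dose matrices, with DMSO typically at 0.2%. CellTiter-Glo 2.0 luminescence gave viability, which was converted to inhibition. Vehicle wells were set to 0 and blank wells to 1. Combination Emax is the second-highest inhibition in the matrix, and Bliss excess is the observed combination effect minus the expected EA + EB − EA·EB, where EA and EB are the single-agent effects.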

Assay [2] relates to CAPAN-2 (Pancreatic Carcinoma). The description is as above. The essentials:
as §1

The subject of assay [3] is CCK-81 (Colorectal Carcinoma). The description is as above. The essentials: as §1
Assay [4] concerns COLO-320-HSR (Colorectal Carcinoma). Described as above. Summed up: as §1
Assay [5] relates to ECC10 (Gastric Carcinoma). Described as above. The essentials: as §1
Assay [6] has as its system FU97 (Gastric Carcinoma). The description is as above. The essentials: as §1
Assay [7] has as its system HCC1954 (Breast Carcinoma). The assay is described as above. Summed up: as §1
Assay [8] concerns IGR-37 (Melanoma). The description is as above. The essentials: as §1
Assay [9] has as its system KARPAS-422 (B-Cell Non-Hodgkin's Lymphoma). The assay is described as above. Summed up:
as §1

Assay [10] deals with LN-405 (Glioblastoma). The assay is described as above. The essentials: as §1
In assay [11] the test system is NCI-H1581 (Non-Small Cell Lung Carcinoma). Described as above. The essentials: as §1
Assay [12] concerns NCI-H1666 (Lung Adenocarcinoma). The assay is described as above. The essentials: as §1
Assay [13] concerns NCI-H2066 (Squamous Cell Lung Carcinoma). The description is as above. The essentials: as §1
Assay [14] deals with NY (Osteosarcoma). The assay is described as above. The essentials:
as §1

For assay [15], the system named is ONS-76 (Other Solid Carcinomas). Described as above. The essentials:
as §1

The subject of assay [16] is PANC-10-05 (Pancreatic Carcinoma). The description is as above. Summed up: as §1
Assay [17] concerns TT (Thyroid Gland Carcinoma). The assay is described as above. The essentials:
as §1

Assay [18] deals with U-2-OS (Osteosarcoma). The assay is described as above. Summed up: as §1
In assay [19] the test system is VCaP (Prostate Carcinoma). The description is as above. The essentials:
as §1

The test system of assay [20] is PANC-10-05 (Pancreatic Carcinoma). Nature of the assay: combination Emax (second highest fraction inhibited in the dose matrix, 72 h); higher = more inhibition; extreme values may be limits of the assay. The essentials:
as §1
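Throughout, for Bliss excess, mean over the matrix: after 72 h of two-drug dosing.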

On to `CS(=O)(=O)CCNCc1ccc(-c2ccc3ncnc(Nc4ccc(OCc5cccc(F)c5)c(Cl)c4)c3c2)o1` [Lapatinib] + NC1(c2ccc(-c3nc4ccn5c(=O)[nH]nc5c4cc3-c3ccccc3)cc2)CCC1 [MK-2206] (first compound max 10 µM, 7x7, partner max 10 µM), for which the Bliss excess in assay [1] is 0.0346; in [2], -0.0098; in assay [3], 0.0908; in assay [4], 0.0102; in assay [5], 0.0211; in assay [6] it was 0.0294. In addition, the Bliss excess in assay [7] is 0.0952; in assay [8] it was 0.0428; in assay [9], -0.0122; in [10], -0.0277; in assay [11] it was -0.0046; in [12], -0.0093. Also, the Bliss excess in assay [13] is 0.0521; in assay [14], 0.0087; in assay [15] it was 0.0048; in assay [16], -0.0218; in assay [17] it was -0.0043; in assay [18], -0.029. Besides, the Bliss excess in assay [19] was -0.0421. Moreover, the “combination Emax” value in [20] came to 0.613.
